Laboratory results published in patent publication US20230117034A1, “PYRAZOLOTRIAZINES” (Bayer Aktiengesellschaft, priority 2019, published 2023).

Columns and labels:
Type in all cases: cell-based
[1] = target: T1, CDK12 protein level in CAL-120 breast cancer cells (Homo sapiens, UniProt Q9NYV4); experiment: CDK12 protein level: Protein Simple (CDK12, CAL-120); details: CAL-120 cells, 18 h with compound, CDK12/HSP90 peak area ratio vs vehicle, median, read-out: CDK12 protein level in CAL-120 breast ca cells, DC50-[mol/l] (median)
T1 construct: endogenous in cells; host or cells: CAL-120 human breast cancer cells (DSMZ ACC 459)
Outline: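 Cells grown 24 h, then treated with compounds for 18 h at 37° C against DMSO controls. Lysates (0.4 microgramms protein) run on Protein Simple 66-440 kDa size assay with CDK12 and HSP90 loading-control antibodies. CDK12/HSP90 peak-area ratios versus vehicle gave DC50 (50% reduction) by 4-parameter fit.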

[2] = target: T2, CDK12 (nuclear staining in CAL-120 cells) (Homo sapiens, UniProt Q9NYV4); experiment: CDK12 nuclear protein level: immunofluorescence/high content analysis (CAL-120); details: for DC50: CAL-120 cells, 24 h, immunofluorescence, 50% reduction of nuclear CDK12 staining intensity, median, read-out: CDK12 degradation IF, DC50- [mol/l] (median); for (IC50 CDK12 high ATP) to (Degradation DC50 CDK12) ratio: ratio of IC50 CDK12 high ATP kinase assay to DC50 CDK12 degradation (IF, CAL-120)
T2 construct: endogenous in cells; host or cells: CAL-120 human breast cancer cells (DSMZ ACC 459)
Outline: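 CAL-120 cells were treated with compound for 24 h at 37 °C, fixed with PFA and immunostained for CDK12. Nuclear CDK12 intensity was quantified by automated image analysis and normalized to DMSO and control. DC50 is the concentration giving 50% reduction of nuclear staining.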

[3] = system: MDA-MB-231, human breast cancer cells; experiment: Proliferation assay MDA-MB-231 (crystal violet, 4 days); details: Homo sapiens, MDA-MB-231, 96 h, MDA-MB-231 cells, median, read-out: Prolif-MDA MB-231, IC50-[mol/l] (median)
Outline: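 Plated 4,000 cells/well, 10% FCS; 24 h later treated 0.01-10 µmol/L cpd (DMSO 0.1%), 4 d. Fix glutaraldehyde, stain 0.1% crystal violet pH 3.0, elute acetic acid, A595. Normalized to t0 plate/untreated; 4-param IC50.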

T1 sequence (Q9NYV4 whole entry): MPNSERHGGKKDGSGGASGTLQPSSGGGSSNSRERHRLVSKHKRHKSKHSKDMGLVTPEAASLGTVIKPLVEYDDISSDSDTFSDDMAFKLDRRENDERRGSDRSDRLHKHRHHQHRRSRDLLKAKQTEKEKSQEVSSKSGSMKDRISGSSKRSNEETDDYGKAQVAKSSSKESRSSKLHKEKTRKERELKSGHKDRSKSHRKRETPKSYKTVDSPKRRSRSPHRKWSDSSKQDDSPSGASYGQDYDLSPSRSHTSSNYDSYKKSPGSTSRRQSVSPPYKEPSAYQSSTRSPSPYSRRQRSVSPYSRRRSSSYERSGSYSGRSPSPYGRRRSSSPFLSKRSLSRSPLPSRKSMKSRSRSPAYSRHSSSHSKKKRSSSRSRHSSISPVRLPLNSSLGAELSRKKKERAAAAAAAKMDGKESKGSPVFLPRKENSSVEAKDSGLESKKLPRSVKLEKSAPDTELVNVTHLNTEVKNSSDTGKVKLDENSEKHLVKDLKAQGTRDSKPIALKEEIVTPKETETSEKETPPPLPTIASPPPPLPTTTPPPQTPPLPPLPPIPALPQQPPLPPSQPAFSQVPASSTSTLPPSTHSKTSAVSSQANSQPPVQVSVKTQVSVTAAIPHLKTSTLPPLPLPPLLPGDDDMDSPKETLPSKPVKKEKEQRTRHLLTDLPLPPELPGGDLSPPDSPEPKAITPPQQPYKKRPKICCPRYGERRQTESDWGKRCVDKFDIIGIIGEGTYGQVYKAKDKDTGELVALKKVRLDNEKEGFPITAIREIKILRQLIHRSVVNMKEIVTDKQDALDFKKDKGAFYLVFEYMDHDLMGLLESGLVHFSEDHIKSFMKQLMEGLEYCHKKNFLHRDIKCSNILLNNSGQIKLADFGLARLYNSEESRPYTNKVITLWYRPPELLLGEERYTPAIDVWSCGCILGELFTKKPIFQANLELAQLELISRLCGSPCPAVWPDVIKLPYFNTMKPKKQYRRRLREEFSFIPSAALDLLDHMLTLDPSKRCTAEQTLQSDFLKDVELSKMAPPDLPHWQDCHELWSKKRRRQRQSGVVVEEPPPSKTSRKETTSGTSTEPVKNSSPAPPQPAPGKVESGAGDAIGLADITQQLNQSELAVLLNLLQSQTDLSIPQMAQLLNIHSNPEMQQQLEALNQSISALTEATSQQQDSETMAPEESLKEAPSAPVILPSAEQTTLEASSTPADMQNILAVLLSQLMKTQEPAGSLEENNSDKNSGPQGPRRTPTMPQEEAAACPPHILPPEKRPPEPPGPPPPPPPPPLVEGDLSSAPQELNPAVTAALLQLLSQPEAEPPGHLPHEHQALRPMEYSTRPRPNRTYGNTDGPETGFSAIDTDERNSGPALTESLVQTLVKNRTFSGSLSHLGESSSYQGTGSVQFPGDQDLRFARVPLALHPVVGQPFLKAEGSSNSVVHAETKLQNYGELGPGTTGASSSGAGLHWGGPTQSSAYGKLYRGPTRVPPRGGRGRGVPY
T1 sequence (O75909 whole entry partner): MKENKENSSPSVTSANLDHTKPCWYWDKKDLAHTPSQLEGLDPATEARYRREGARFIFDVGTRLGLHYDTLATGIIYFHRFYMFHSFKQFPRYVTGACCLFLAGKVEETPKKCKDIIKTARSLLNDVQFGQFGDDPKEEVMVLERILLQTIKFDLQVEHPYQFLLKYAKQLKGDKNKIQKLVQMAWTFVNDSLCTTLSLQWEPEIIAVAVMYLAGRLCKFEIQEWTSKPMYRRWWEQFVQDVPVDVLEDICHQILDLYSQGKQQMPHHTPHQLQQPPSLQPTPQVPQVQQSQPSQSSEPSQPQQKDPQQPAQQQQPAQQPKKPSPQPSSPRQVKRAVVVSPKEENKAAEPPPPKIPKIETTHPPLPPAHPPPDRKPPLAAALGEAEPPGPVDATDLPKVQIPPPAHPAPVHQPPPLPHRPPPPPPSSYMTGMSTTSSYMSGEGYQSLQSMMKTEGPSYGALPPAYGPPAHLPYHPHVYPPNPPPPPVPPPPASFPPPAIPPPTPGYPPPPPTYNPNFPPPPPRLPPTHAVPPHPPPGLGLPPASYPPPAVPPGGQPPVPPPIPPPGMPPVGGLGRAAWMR
T2 sequence (Q9NYV4 whole entry): as the sequence (Q9NYV4 whole entry) above
T2 sequence (O75909 whole entry partner): as the sequence (O75909 whole entry partner) above

SMILES | DC50 [1] [nM] | DC50 [2] [nM] | (IC50 CDK12 high ATP) to (Degradation DC50 CDK12) ratio [2] | IC50 [3] [nM]
Brc1cnn2c(NCc3nnc(-c4ccccc4)[nH]3)nc(N3CCCC3)nc12 [Example 64, 8-bromo-N-[(5-phenyl-4H-1,2,4-triazol-3-yl)methyl]-2-(pyrrolidin-1-yl)pyrazolo[1,5-a][1,3,5]triazin-4-amine] | 87.1 | 12.5 | 440 | 
COC(=O)C1CCN(c2nc(NCc3nc4ccccc4[nH]3)n3ncc(Br)c3n2)CC1 [Example 63, methyl 1-(4-{[(1H-benzimidazol-2-yl)methyl]amino}-8-bromopyrazolo[1,5-a][1,3,5]triazin-2-yl)piperidine-4-carboxylate] | 41.8 | 20.7 | 556 | 
CN1CCN(c2nc(NCc3nc4cc(Cl)c(Cl)cc4[nH]3)n3ncc(C4CC4)c3n2)CC1 [Example 305, 8-cyclopropyl-N-[(5,6-dichloro-1H-benzimidazol-2-yl)methyl]-2-(4-methylpiperazin-1-yl)pyrazolo[1,5-a][1,3,5]triazin-4-amine] |  |  |  | 5.94
CN1CCN(c2nc(NCc3nc4cc(C(F)(F)F)ccc4[nH]3)n3ncc(C4CC4)c3n2)CC1 [Example 313, 8-cyclopropyl-2-(4-methylpiperazin-1-yl)-N-{[5-(trifluoromethyl)-1H-benzimidazol-2-yl]methyl}pyrazolo[1,5-a][1,3,5]triazin-4-amine] |  | 26.8 | 679 | 15.6
CC(C)c1cnn2c(NCc3nc4ccccc4[nH]3)nc(N3CCOC(C)(C)C3)nc12 [Example 12, N-[(1H-benzimidazol-2-yl)methyl]-2-(2,2-dimethylmorpholin-4-yl)-8-(propan-2-yl)pyrazolo[1,5-a][1,3,5]triazin-4-amine] |  | 42.7 | 399 | 373
O[C@@H]1CCN(c2nc(NCc3nc4ccccc4[nH]3)n3ncc(Br)c3n2)C1 [Example 202, (3R)-1-(4-{[(1H-benzimidazol-2-yl)methyl]amino}-8-bromopyrazolo[1,5-a][1,3,5]triazin-2-yl)pyrrolidin-3-ol] |  | 31.8 | 518 | 295
CC(C)c1cnn2c(NCc3nc4ccccc4[nH]3)nc(N3CCOCC3)nc12 [Example 1, N-[(1H-benzimidazol-2-yl)methyl]-2-(morpholin-4-yl)-8-(propan-2-yl)pyrazolo[1,5-a][1,3,5]triazin-4-amine] | 57.4 | 11.1 | 537 | 86.4
Fc1ccc(-c2cnc(CNc3nc(N4CCOCC4)nc4c(Br)cnn34)[nH]2)cc1 [Example 66, 8-bromo-N-{[5-(4-fluorophenyl)-1H-imidazol-2-yl]methyl}-2-(morpholin-4-yl)pyrazolo[1,5-a][1,3,5]triazin-4-amine] | 43.7 | 130 | >44 | 

Further compounds by falling DC50 [2], results first:

DC50 [1] [nM] | DC50 [2] [nM] | (IC50 CDK12 high ATP) to (Degradation DC50 CDK12) ratio [2] | IC50 [3] [nM] | SMILES
128 | 10 | 569 |  | COC1CCN(c2nc(NCc3nc4ccccc4[nH]3)n3ncc(Br)c3n2)CC1 [Example 62, N-[(1H-benzimidazol-2-yl)methyl]-8-bromo-2-(4-methoxypiperidin-1-yl)pyrazolo[1,5-a][1,3,5]triazin-4-amine]
 | 9.37 | 111 |  | FC(F)(F)c1cccc(-c2cnc(CNc3nc(N4CCOCC4)nc4c(Br)cnn34)[nH]2)c1 [Example 83, 8-bromo-2-(morpholin-4-yl)-N-({5-[3-(trifluoromethyl)phenyl]-1H-imidazol-2-yl}methyl)pyrazolo[1,5-a][1,3,5]triazin-4-amine]
 | 6.81 | 239 | 20.1 | Fc1ccc2[nH]c(CNc3nc(N4CCOCC4)nc4c(-c5cnn(C(F)F)c5)cnn34)nc2c1F [Example 422, N-[(4,5-difluoro-1H-benzimidazol-2-yl)methyl]-8-[1-(difluoromethyl)-1H-pyrazol-4-yl]-2-(morpholin-4-yl)pyrazolo[1,5-a][1,3,5]triazin-4-amine]
 | 5.15 | 141 |  | C[C@@H]1CN(c2nc(NCc3nnc(-c4ccccc4)[nH]3)n3ncc(Br)c3n2)C[C@H](C)O1 [Example 78, 8-bromo-2-[(2R,6S)-2,6-dimethylmorpholin-4-yl]-N-[(5-phenyl-4H-1,2,4-triazol-3-yl)methyl]pyrazolo[1,5-a][1,3,5]triazin-4-amine]
 | 0.591 | 9674 | 4.25 | CCc1cnn2c(NCc3nc4c(F)c(F)ccc4[nH]3)nc(N3CCN(C)CC3)nc12.O=CO [Example 435, formic acid N-[(4,5-difluoro-1H-benzimidazol-2-yl)methyl]-8-ethyl-2-(4-methylpiperazin-1-yl)pyrazolo[1,5-a][1,3,5]triazin-4-amine]
